Drawing on patent US20230102554A1 (GB002, INC., priority 2019, published 2023), this text covers IC50 for 27 compounds.

For assay [1], the target named is T1, Human PDGFRα, cytoplasmic domain (GST-PDGFRα) (Homo sapiens, UniProt P16234).
T1 construct: made in house
The experiment in a line: Human PDGFRα biochemical inhibition assay (off-chip Mobility Shift Assay).

In assay [2] the target is T2, Human PDGFRβ, cytoplasmic domain (GST-PDGFRβ) (Homo sapiens, UniProt P09619).
T2 construct: made in house
The experiment in a line: Human PDGFRβ biochemical inhibition assay (off-chip Mobility Shift Assay). In a few lines: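 GST-tagged cytoplasmic domain (aa 557-1106) from baculovirus was incubated 1 h at room temperature with compound, CSKtide, ATP at Km and Mg²⁺ in HEPES buffer, pH 7.5. Phosphorylated and unphosphorylated peptide were separated by off-chip mobility shift, and the product ratio P/(P+S) gave percent inhibition.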

pIC50: −log10 of the molar value.

T1 sequence (P16234 550-1089 T674I): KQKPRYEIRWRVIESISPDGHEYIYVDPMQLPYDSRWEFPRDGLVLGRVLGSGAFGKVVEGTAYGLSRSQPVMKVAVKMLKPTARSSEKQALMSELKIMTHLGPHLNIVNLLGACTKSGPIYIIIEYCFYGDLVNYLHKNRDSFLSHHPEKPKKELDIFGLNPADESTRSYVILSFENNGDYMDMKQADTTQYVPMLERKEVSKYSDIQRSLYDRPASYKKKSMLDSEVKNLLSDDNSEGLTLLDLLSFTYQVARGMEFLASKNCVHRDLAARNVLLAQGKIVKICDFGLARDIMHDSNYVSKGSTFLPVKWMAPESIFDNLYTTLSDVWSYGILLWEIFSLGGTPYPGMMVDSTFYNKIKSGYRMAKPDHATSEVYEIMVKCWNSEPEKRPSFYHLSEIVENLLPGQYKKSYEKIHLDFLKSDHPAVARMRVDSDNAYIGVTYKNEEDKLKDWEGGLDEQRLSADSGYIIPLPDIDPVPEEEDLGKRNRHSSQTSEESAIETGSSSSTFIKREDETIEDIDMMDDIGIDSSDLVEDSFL
T2 sequence (P09619 with tags, fused parts or gaps): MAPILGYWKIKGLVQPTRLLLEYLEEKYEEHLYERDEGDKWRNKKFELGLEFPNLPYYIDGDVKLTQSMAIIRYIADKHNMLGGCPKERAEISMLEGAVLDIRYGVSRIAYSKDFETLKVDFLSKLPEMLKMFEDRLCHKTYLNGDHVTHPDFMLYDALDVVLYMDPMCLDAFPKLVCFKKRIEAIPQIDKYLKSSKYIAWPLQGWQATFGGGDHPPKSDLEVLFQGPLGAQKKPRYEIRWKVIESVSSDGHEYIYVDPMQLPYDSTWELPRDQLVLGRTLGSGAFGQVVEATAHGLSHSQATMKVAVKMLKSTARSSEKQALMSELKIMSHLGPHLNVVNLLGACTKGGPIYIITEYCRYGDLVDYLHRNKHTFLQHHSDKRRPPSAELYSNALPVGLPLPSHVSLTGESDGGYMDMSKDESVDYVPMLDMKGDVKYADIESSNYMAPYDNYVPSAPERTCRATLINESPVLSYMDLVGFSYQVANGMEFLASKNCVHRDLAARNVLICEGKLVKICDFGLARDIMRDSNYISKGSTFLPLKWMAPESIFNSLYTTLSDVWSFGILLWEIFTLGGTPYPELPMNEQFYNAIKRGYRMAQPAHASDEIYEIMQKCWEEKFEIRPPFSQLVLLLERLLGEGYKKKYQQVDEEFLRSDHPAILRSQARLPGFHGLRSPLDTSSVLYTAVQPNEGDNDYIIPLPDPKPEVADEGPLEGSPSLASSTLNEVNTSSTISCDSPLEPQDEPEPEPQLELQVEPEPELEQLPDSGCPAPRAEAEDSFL

The term pIC50 denotes the IC50 on a negative log10 scale, so that one unit is a factor of ten. For the compound `C[C@H](Nc1cnc2cnn(C)c2n1)c1cccc(NC(=O)c2ccc3ccn(C)c3c2)c1` [Compound 50, (S)-1-methyl-N-(3-(1-((1-methyl-1H-pyrazolo[3,4-b]pyrazin-6-yl)amino)ethyl)phenyl)-1H-indole-6-carboxamide], the negative logarithm of the IC50 (pIC50) in assay [1] and in assay [2] was above 6.52 in each case.
With `CCn1cc2ncc(N[C@@H](C)c3cccc(NC(=O)Cc4ccc(OC)cn4)c3)nc2n1` [Compound 697, (S)-N-(3-(1-((2-ethyl-2H-pyrazolo[3,4-b]pyrazin-6-yl)amino)ethyl)phenyl)-2-(5-methoxypyridin-2-yl)acetamide], the negative logarithm of the IC50 (pIC50) was 6.00 to 6.52 in assay [1] and at most 6.00 in assay [2].
The like results for `Cc1cncc(C(=O)Nc2cccc([C@H](C)Nc3cncc4[nH]ncc34)c2)c1` [Compound 749, (S)-N-(3-(1-((1H-pyrazolo[3,4-c]pyridin-4-yl)amino)ethyl)phenyl)-5-methylnicotinamide] were, in that order, at most 6.00 and at most 6.00.
With `Cc1cncc(C(=O)Nc2cccc([C@H](C)Nc3cnc4cn(CC5CC5)nc4n3)c2)c1` [Compound 275, (S)-N-(3-(1-((2-(cyclopropylmethyl)-2H-pyrazolo[3,4-b]pyrazin-6-yl)amino)ethyl)phenyl)-5-methylnicotinamide], the negative logarithm of the IC50 (pIC50) in assay [1] and in assay [2] was above 6.52 in each case.
Regarding `C[C@H](Nc1cnc2cnn(C)c2n1)c1cccc(NC(=O)c2cnc3ccn(C)c3c2)c1` [Compound 46, (S)-1-methyl-N-(3-(1-((1-methyl-1H-pyrazolo[3,4-b]pyrazin-6-yl)amino)ethyl)phenyl)-1H-pyrrolo[3,2-b] pyridine-6-carboxamide], the pIC50 in assay [1] and in assay [2] was above 6.52 in each case.
As to `CCn1cc2ncc(N[C@@H](C)c3cccc(NC(=O)Cc4cccc(C(F)(F)F)c4)c3)nc2n1` [Compound 630, (S)-N-(3-(1-((2-ethyl-2H-pyrazolo[3,4-b]pyrazin-6-yl)amino)ethyl)phenyl)-2-(3-(trifluoromethyl)phenyl) acetamide], the pIC50 is above 6.52 in assay [1] and 6.00 to 6.52 in assay [2].
The like results for `C[C@H](Nc1cnc2cnn(C)c2n1)c1cccc(NC(=O)c2cc(C3CC3)on2)c1` [Compound 144, (S)-5-cyclopropyl-N-(3-(1-((1-methyl-1H-pyrazolo[3,4-b]pyrazin-6-yl)amino)ethyl)phenyl)isoxazole-3-carboxamide] were, in that order, above 6.52 and above 6.52.
The like results for `CCn1cc2ncc(N[C@@H](C)c3cccc(NC(=O)c4cnc(N(C)C)c(C)c4)c3)nc2n1` [Compound 348, (S)-6-(dimethylamino)-N-(3-(1-((2-ethyl-2H-pyrazolo[3,4-b]pyrazin-6-yl)amino)ethyl)phenyl)-5-methylnicotinamide] were, in that order, above 6.52 and above 6.52.
For `CCn1cc2ncc(N[C@@H](C)c3cccc(NC(=O)c4cnc5c(c4)CCC5)c3)nc2n1` [Compound 58, (S)-N-(3-(1-((2-ethyl-2H-pyrazolo[3,4-b]pyrazin-6-yl)amino)ethyl)phenyl)-6,7-dihydro-5H-cyclope3nta[6] pyridine-3-carboxamide] the same measures were above 6.52 and above 6.52.
`Cc1ncc(C(=O)Nc2cccc([C@H](C)Nc3cnc4cnn(C)c4n3)c2)s1` [Compound 138, (S)-2-methyl-N-(3-(1-((1-methyl-1H-pyrazolo[3,4-b]pyrazin-6-yl)amino)ethyl)phenyl)thiazole-5-carboxamide]: the pIC50 in assay [1] and in assay [2] was above 6.52 throughout.
Turning to `CCn1cc2ncc(N[C@@H](C)c3cccc(NC(=O)c4cnc(N5CCN(C)CC5)c(C)c4)c3)nc2n1` [Compound 396, (S)-N-(3-(1-((2-ethyl-2H-pyrazolo[3,4-b]pyrazin-6-yl)amino)ethyl)phenyl)-5-methyl-6-(4-methylpiperazin-1-yl) nicotinamide], the pIC50 in assay [1] and in assay [2] was above 6.52 in each case.
With `Cc1n[nH]c2ncc(N[C@@H](C)c3cccc(NC(=O)c4ccc(C(F)(F)F)nc4)c3)nc12` [Compound 534, (S)-N-(3-(1-((3-methyl-1H-pyrazolo[3,4-b]pyrazin-5-yl)amino)ethyl)phenyl)-6-(trifluoromethyl)nicotinamide], the negative logarithm of the IC50 (pIC50) in assay [1] and in assay [2] was above 6.52 throughout.
For `CCn1cc2ncc(N[C@@H](C)c3cccc(NC(=O)c4ccc(N5CCN(C)CC5)c(C(F)(F)F)c4)c3)nc2n1` [Compound 436, (S)-N-(3-(1-((2-ethyl-2H-pyrazolo[3,4-b]pyrazin-6-yl)amino)ethyl)phenyl)-4-(4-methylpiperazin-1-yl)-3-(trifluoromethyl)benzamide], the pIC50 in assay [1] and in assay [2] was above 6.52 in each case.
As for `Cc1cncc(C(=O)Nc2cccc([C@H](C)Nc3cnc4[nH]c(-c5cnn(C)c5)nc4n3)c2)c1` [Compound 603, (S)-5-methyl-N-(3-(1-((2-(1-methyl-1H-pyrazol-4-yl)-1H-imidazo[4,5-b]pyrazin-5-yl)amino)ethyl)phenyl) nicotinamide], the negative-log IC50 (pIC50) in assay [1] and in assay [2] was above 6.52 in each case.
On to `CCn1cc2ncc(N[C@@H](C)c3cccc(NC(=O)Cc4ccc(F)c(C)c4)c3)nc2n1` [Compound 632, (S)-N-(3-(1-((2-ethyl-2H-pyrazolo[3,4-b]pyrazin-6-yl)amino)ethyl)phenyl)-2-(4-fluoro-3-methylphenyl) acetamide], for which the negative-log IC50 (pIC50) in assay [1] and in assay [2] was above 6.52 in each case.
For `C[C@H](Nc1cnc2cnn(C)c2n1)c1cccc(NC(=O)c2cc(C(F)(F)F)nn2C)c1` [Compound 160, (S)-1-methyl-N-(3-(1-((1-methyl-1H-pyrazolo[3,4-b]pyrazin-6-yl)amino)ethyl)phenyl)-3-(trifluoromethyl)-1H-pyrazole-5-carboxamide], the pIC50 in assay [1] and in assay [2] was above 6.52 each time.
`Cc1cncc(C(=O)Nc2cccc([C@H](C)Nc3cnc4[nH]nc(-c5cnn(C)c5)c4n3)c2)c1` [Compound 551, (S)-5-methyl-N-(3-(1-((3-(1-methyl-1H-pyrazol-4-yl)-1H-pyrazolo[3,4-b]pyrazin-5-yl)amino)ethyl)phenyl) nicotinamide]: the pIC50 in assay [1] and in assay [2] was above 6.52 throughout.
With `C[C@H](Nc1cnc2cnn(C)c2n1)c1cccc(NC(=O)c2cnn(C(F)F)c2)c1` [Compound 149, (S)-1-(difluoromethyl)-N-(3-(1-((1-methyl-1H-pyrazolo[3,4-b]pyrazin-6-yl)amino)ethyl)phenyl)-1H-pyrazole-4-carboxamide], the pIC50 in assay [1] and in assay [2] was above 6.52 throughout.
In the case of `C[C@H](Nc1cnc2cnn(C)c2n1)c1cccc(NC(=O)c2ccc3c(c2)OCCO3)c1` [Compound 68, (S)-N-(3-(1-((1-methyl-1H-pyrazolo[3,4-b]pyrazin-6-yl)amino)ethyl)phenyl)-2,3-dihydrobenzo[b][1,4]dioxine-6-carboxamide], the pIC50 in assay [1] and in assay [2] was above 6.52 throughout.
Take `Cc1cc(C(=O)Nc2cccc([C@H](C)Nc3cnc4cnn(C)c4n3)c2)ccc1C(=O)OCCN` [Compound 266, 2-aminoethyl (S)-2-methyl-4-((3-(1-((1-methyl-1H-pyrazolo[3,4-b]pyrazin-6-yl)amino)ethyl)phenyl)carbamoyl) benzoate]: the pIC50 in assay [1] and in assay [2] was above 6.52 throughout.
Take `Cc1n[nH]c2ncc(N[C@@H](C)c3cccc(NC(=O)c4cnc(C(F)(F)F)s4)c3)nc12` [Compound 540, (S)-N-(3-(1-((3-methyl-1H-pyrazolo[3,4-b]pyrazin-5-yl)amino)ethyl)phenyl)-2-(trifluoromethyl)thiazole-5-carboxamide]: the pIC50 in assay [1] and in assay [2] was above 6.52 throughout.
In the case of `Cc1cncc(C(=O)Nc2cccc([C@H](C)Nc3cnc4cn(CCF)nc4n3)c2)c1` [Compound 277, (S)-N-(3-(1-((2-(2-fluoroethyl)-2H-pyrazolo[3,4-b]pyrazin-6-yl)amino)ethyl)phenyl)-5-methylnicotinamide], the pIC50 in assay [1] and in assay [2] was above 6.52 in each case.
In the case of `Cc1cc(C(=O)Nc2ccc(F)c([C@H](C)Nc3cnc4cnn(C)c4n3)c2)ccc1CN1CCN(C)CC1` [Compound 228, (S)-N-(4-fluoro-3-(1-((1-methyl-1H-pyrazolo[3,4-b]pyrazin-6-yl)amino)ethyl)phenyl)-3-methyl-4-((4-methylpiperazin-1-yl)methyl)benzamide], the pIC50 in assay [1] and in assay [2] was above 6.52 throughout.
As for `CCn1cc2ncc(N[C@@H](C)c3cccc(NC(=O)c4ccc(C(F)(F)F)c(Cl)c4)c3)nc2n1` [Compound 438, (S)-3-chloro-N-(3-(1-((2-ethyl-2H-pyrazolo[3,4-b]pyrazin-6-yl)amino)ethyl)phenyl)-4-(trifluoromethyl)benzamide], the pIC50 in assay [1] and in assay [2] was above 6.52 throughout.
On to `CCOc1ccc(C(=O)Nc2cccc([C@H](C)Nc3cnc4cn(CC)nc4n3)c2)cn1` [Compound 286, (S)-6-ethoxy-N-(3-(1-((2-ethyl-2H-pyrazolo[3,4-b]pyrazin-6-yl)amino)ethyl)phenyl) nicotinamide], for which the pIC50 in assay [1] is above 6.52; in assay [2], 6.00 to 6.52.
The like results for `Cc1cc2ncc(N[C@@H](C)c3cccc(NC(=O)c4ccc(C5CC5)nc4)c3)nc2s1` [Compound 610, (S)-6-cyclopropyl-N-(3-(1-((6-methylthieno[2,3-b]pyrazin-3-yl)amino)ethyl)phenyl) nicotinamide] were, in that order, above 6.52 and above 6.52.
The like results for `C[C@H](Nc1cnc2[nH]cc(-c3cnn(C)c3)c2n1)c1cccc(NC(=O)c2ccc(N3CCCC3)nc2)c1` [Compound 585, (S)-N-(3-(1-((7-(1-methyl-1H-pyrazol-4-yl)-5H-pyrrolo[2,3-b]pyrazin-2-yl)amino)ethyl)phenyl)-6-(pyrrolidin-1-yl) nicotinamide] were, in that order, above 6.52 and above 6.52.
